Assay results from ChEMBL document CHEMBL1201862, “PubChem BioAssay data set” (2004).
Active and inactive are the calls of the source.

Experiments:
[1] = tested on: Streptococcus sp. 'group A'; assay: Streptococcus pyogenes SK(-)GAS viability under kanamycin – luminescence, BacTiterGlo, confirmation, counter-screen for streptokinase expression inhibitor project, dose response (AID 1900); type: functional, organism-based
[2] = molecular target: T1, Streptokinase A (Streptococcus pyogenes serotype M1, UniProt P10520); assay: viability-normalized secreted streptokinase activity reduction – plasminogen activation absorbance, OD405, dose response (AID 1914); type: functional, Streptococcus pyogenes M1 GAS;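 further: secreted streptokinase activity via plasminogen activation per viability signal from cell pellet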
T1 sequence (P10520 whole entry): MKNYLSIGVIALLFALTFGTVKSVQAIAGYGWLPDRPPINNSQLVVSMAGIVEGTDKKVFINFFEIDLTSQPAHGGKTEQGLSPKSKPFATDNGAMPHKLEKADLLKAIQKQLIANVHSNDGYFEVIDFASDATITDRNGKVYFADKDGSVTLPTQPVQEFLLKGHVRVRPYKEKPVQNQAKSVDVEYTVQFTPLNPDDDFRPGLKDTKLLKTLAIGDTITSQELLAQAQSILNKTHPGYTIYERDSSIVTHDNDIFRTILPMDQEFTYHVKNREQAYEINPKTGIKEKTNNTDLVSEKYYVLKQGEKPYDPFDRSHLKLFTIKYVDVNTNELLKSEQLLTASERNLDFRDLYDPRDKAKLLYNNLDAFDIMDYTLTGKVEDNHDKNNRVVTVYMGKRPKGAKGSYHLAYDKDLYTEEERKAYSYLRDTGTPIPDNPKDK

[3] = tested on: Streptococcus; assay: GAS UMAA2166 growth inhibition – luminescence, BacTiterGlo, counter-screen for streptokinase expression inhibitor project, dose response (AID 1915); type: functional, organism-based;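 further: potency for reduction of bacterial viability or growth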
[4] = molecular target: T2, Bcl-2-related protein A1 (Mus musculus, UniProt Q07440); type: functional;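 further: confirmatory dose–response counterscreen on Bfl-1, used to check hits from a UBC13 polyubiquitin inhibitor campaign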
T2 sequence (Q07440 whole entry): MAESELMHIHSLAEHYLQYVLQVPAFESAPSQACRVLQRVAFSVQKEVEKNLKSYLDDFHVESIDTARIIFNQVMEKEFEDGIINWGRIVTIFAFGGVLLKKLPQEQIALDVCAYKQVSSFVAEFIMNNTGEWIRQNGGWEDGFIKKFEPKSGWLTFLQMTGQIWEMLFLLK

[5] = molecular target: T3, Ubiquitin-conjugating enzyme E2 N (Homo sapiens, UniProt P61088); type: functional
T3 sequence (P61088 whole entry): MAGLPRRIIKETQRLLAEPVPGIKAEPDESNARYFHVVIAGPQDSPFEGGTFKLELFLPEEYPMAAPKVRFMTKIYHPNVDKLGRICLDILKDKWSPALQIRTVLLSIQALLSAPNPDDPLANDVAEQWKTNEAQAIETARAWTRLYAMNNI

[6] = molecular target: T3, Ubiquitin-conjugating enzyme E2 N; type: functional; remark: listed apart in the source
[7] = molecular target: Apelin receptor (Homo sapiens, UniProt P35414); assay: apelin receptor antagonists, arrestin read-out – cell-based, luminescent, enzyme-fragment complementation, selectivity assay for CCR6 antagonist project, SAR follow-up (AID 588359); type: functional
[8] = molecular target: C-X-C chemokine receptor type 5 (Homo sapiens, UniProt P32302); assay: inhibition of CXCL13-driven CXCR5 beta-arrestin recruitment – cell-based, luminescence, CHO-K1 PathHunter, selectivity assay for CCR6 antagonist project, SAR follow-up (AID 540340); type: functional
[9] = molecular target: C-C chemokine receptor type 6 (Homo sapiens, UniProt P51684); assay: analog antagonism of CCR6 beta-arrestin signaling – cell-based, luminescent beta-arrestin readout, SAR follow-up (AID 540334); type: functional
[10] = molecular target: Voltage-gated inwardly rectifying potassium channel KCNH2 (Homo sapiens, UniProt Q12809); conditions: Potency;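 further: confirmatory quantitative high-throughput screen measuring inhibition of hERG channel activity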
[11] = molecular target: T4, Sentrin-specific protease 8 (Homo sapiens, UniProt Q96LD8); assay: inhibition of human SENP8 cleavage activity – biochemical, luminescence, SAR follow-up (AID 504501); type: functional
T4 sequence (Q96LD8 whole entry): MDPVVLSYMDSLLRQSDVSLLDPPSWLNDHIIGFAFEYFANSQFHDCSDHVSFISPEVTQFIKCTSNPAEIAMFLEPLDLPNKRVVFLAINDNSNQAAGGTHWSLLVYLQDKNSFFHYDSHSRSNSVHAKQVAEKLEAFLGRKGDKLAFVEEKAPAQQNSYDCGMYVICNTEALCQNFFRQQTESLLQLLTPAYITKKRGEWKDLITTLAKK

[12] = molecular target: T5, Caspase-3 (Homo sapiens, UniProt P42574); assay: inhibition of recombinant caspase-3 activity – biochemical, luminescence, set 2, selectivity assay for SENP protease inhibitor project, SAR follow-up (AID 588599); type: functional
T5 sequence (P42574 whole entry): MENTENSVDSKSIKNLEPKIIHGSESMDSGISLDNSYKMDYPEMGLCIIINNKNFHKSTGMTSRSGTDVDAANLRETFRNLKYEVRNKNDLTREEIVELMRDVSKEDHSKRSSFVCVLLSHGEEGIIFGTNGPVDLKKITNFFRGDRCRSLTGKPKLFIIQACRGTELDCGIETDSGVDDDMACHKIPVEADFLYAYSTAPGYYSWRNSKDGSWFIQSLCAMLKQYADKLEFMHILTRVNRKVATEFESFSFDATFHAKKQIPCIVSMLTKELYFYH

[13] = molecular target: T4, Sentrin-specific protease 8; assay: inhibition of sentrin protease 8 – biochemical, luminescence, set 2, SAR follow-up (AID 588601); type: functional
[14] = molecular target: T5, Caspase-3; assay: SAR Analysis of small molecule inhibitors of Sentrin-specific proteases (SENPs) using a Caspase-3 Selectivity assay. [Related pubchem assays (depositor defined):AID2540, AID2599, AID434973, AID489001]; type: functional
[15] = molecular target: T6, Sentrin-specific protease 7 (Homo sapiens, UniProt Q9BQF6); assay: inhibition of human SENP7 cleavage activity – biochemical, luminescence, set 2, SAR follow-up (AID 588600); type: functional
T6 sequence (Q9BQF6 whole entry): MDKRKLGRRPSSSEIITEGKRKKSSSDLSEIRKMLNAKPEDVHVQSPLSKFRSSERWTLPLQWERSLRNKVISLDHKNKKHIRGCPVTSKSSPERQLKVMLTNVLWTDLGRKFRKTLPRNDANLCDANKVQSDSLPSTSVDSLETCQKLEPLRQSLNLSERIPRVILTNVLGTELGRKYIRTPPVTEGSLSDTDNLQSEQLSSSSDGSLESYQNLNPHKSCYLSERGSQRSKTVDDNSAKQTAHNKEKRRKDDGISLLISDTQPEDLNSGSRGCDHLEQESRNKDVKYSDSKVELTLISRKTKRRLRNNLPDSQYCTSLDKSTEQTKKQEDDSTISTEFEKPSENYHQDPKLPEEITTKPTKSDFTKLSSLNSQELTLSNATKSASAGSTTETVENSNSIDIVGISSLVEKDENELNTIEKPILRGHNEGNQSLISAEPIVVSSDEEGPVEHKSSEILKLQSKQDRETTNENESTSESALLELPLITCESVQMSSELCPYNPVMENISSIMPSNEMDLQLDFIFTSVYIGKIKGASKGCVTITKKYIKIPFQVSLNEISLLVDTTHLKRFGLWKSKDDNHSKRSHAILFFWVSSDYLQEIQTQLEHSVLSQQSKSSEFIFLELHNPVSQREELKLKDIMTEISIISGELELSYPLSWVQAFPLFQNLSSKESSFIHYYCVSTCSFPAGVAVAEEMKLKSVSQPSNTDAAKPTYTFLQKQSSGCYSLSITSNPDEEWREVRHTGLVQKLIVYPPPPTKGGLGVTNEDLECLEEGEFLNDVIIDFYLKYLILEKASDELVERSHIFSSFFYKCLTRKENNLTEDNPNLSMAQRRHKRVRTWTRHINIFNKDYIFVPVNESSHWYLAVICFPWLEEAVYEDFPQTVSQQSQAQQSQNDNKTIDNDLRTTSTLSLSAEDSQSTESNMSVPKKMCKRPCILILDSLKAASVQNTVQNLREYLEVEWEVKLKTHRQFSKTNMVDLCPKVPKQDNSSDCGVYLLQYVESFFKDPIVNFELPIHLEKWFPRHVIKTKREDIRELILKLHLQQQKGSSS

[16] = molecular target: T7, Sentrin-specific protease 6 (Homo sapiens, UniProt Q9GZR1); assay: SAR Analysis of small molecule inhibitors of Sentrin-specific protease 6 (SENP6) using a Luminescent assay. [Related pubchem assays (depositor defined):AID2582, AID2599]; type: functional
T7 sequence (Q9GZR1 whole entry): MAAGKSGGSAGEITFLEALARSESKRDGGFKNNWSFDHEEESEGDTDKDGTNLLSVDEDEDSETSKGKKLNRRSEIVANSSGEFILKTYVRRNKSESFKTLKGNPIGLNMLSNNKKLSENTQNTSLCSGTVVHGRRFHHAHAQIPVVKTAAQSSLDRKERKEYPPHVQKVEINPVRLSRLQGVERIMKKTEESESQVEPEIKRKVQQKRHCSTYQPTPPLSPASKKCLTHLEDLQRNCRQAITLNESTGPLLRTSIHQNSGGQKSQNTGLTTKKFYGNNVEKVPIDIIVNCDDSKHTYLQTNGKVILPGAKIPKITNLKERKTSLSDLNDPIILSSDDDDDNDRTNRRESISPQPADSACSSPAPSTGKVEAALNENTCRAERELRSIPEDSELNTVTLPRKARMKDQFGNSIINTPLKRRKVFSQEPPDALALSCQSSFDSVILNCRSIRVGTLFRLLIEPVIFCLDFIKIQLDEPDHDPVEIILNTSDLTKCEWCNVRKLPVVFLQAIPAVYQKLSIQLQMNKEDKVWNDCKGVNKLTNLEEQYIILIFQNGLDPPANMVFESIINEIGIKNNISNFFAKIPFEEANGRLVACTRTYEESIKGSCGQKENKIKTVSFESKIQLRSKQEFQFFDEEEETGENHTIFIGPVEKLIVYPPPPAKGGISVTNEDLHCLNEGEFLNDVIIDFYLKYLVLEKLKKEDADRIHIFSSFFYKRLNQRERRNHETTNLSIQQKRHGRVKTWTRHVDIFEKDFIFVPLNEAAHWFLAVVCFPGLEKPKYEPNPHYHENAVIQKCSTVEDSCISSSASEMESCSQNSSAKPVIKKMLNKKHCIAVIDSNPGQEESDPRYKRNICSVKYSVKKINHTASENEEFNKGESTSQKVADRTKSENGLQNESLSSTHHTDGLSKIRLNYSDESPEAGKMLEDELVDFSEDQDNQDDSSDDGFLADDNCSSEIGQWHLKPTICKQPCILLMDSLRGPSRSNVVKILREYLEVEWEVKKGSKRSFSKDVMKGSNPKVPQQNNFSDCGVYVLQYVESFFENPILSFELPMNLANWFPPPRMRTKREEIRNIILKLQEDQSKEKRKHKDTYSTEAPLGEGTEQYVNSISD

[17] = molecular target: T7, Sentrin-specific protease 6; assay: inhibition of human SENP6 catalytic domain – biochemical, luminescence, set 2, SAR follow-up (AID 588598); type: functional
[18] = molecular target: T6, Sentrin-specific protease 7; assay: inhibition of human SENP7 cleavage activity – biochemical, luminescence, SAR follow-up (AID 504497); type: functional
[19] = molecular target: Serine/threonine-protein kinase D2 (Homo sapiens, UniProt Q9BZL6); type: functional;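 further: measured against PRKD2 as one member of a kinome-wide kinase profiling panel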
[20] = molecular target: Eukaryotic elongation factor 2 kinase (Homo sapiens, UniProt O00418); type: functional
[21] = molecular target: Testis-specific serine/threonine-protein kinase 2 (Homo sapiens, UniProt Q96PF2); type: functional;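 further: part of the Navigating the Kinome panel, target entry STK22B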
[22] = molecular target: Protein kinase C gamma type (Homo sapiens, UniProt P05129); type: functional
[23] = molecular target: MAP kinase-activated protein kinase 3 (Homo sapiens, UniProt Q16644); type: functional;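 further: value comes from a kinome-wide profiling panel in which MAPKAPK3 is one of the panel members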
[24] = molecular target: Dual specificity tyrosine-phosphorylation-regulated kinase 4 (Homo sapiens, UniProt Q9NR20); type: functional
[25] = molecular target: Lymphokine-activated killer T-cell-originated protein kinase (Homo sapiens, UniProt Q96KB5); type: functional;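 further: value comes from a kinase panel screen in which TOPK was one of the panel members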
[26] = molecular target: Megakaryocyte-associated tyrosine-protein kinase (Homo sapiens, UniProt P42679); type: functional;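 further: affinity measured as one member of a kinase panel (Navigating the Kinome) against MATK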
[27] = molecular target: Interleukin-1 receptor-associated kinase 1 (Homo sapiens, UniProt P51617); type: functional;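 further: IRAK1 tested as one member of a kinome panel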
[28] = molecular target: Serine/threonine-protein kinase BRSK1 (Homo sapiens, UniProt Q8TDC3); type: functional;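 further: measured within a kinome-wide kinase panel, with the target listed as KIAA1811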
[29] = molecular target: Ribosomal protein S6 kinase alpha-3 (Homo sapiens, UniProt P51812); type: functional;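 further: measured within a kinome-wide profiling panel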
[30] = molecular target: Serine/threonine-protein kinase pim-1 (Homo sapiens, UniProt P11309); type: functional
[31] = molecular target: Serine/threonine-protein kinase Chk1 (Homo sapiens, UniProt O14757); type: functional;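 further: measured as one member of a kinome-wide kinase profiling panel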
[32] = THP-1 cell cytotoxicity, cytotoxicity control, set 6 (AID 602433); type: functional; conditions: Mycobacterium tuberculosis

Megakaryocyte-associated tyrosine-protein kinase, sequence (P42679 whole entry): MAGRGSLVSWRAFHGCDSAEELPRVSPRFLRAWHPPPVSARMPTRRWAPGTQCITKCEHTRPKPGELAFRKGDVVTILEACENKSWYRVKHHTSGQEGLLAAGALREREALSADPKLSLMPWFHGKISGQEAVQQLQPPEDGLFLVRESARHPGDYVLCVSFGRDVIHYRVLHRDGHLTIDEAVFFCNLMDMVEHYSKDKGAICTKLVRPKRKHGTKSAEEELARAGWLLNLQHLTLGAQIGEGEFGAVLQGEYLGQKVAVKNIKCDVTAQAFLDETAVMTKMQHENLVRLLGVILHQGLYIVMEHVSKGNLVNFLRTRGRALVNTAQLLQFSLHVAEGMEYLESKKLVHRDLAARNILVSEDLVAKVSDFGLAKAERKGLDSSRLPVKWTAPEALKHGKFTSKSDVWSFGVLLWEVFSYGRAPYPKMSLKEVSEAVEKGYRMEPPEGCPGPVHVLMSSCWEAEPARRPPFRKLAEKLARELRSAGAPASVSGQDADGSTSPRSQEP
C-C chemokine receptor type 6, sequence (P51684 whole entry): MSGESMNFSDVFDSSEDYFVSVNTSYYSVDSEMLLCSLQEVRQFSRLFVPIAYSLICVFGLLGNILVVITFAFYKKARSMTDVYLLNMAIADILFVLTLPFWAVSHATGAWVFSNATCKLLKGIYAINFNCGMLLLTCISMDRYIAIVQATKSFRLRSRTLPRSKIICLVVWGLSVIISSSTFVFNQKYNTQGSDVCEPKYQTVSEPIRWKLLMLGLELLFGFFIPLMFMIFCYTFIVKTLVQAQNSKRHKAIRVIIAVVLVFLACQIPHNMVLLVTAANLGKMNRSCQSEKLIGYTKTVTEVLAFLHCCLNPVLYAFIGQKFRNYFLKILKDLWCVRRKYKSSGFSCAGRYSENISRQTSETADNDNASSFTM
Serine/threonine-protein kinase pim-1, sequence (P11309 whole entry): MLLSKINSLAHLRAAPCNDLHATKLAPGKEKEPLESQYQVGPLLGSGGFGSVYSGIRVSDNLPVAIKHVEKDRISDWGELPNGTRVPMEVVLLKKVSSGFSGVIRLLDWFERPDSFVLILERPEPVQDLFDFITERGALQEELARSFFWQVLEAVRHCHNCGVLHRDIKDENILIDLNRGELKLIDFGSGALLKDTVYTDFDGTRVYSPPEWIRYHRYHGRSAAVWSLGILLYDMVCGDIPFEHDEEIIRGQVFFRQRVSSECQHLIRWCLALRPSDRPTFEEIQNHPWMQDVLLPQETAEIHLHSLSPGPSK
Serine/threonine-protein kinase BRSK1, sequence (Q8TDC3 whole entry): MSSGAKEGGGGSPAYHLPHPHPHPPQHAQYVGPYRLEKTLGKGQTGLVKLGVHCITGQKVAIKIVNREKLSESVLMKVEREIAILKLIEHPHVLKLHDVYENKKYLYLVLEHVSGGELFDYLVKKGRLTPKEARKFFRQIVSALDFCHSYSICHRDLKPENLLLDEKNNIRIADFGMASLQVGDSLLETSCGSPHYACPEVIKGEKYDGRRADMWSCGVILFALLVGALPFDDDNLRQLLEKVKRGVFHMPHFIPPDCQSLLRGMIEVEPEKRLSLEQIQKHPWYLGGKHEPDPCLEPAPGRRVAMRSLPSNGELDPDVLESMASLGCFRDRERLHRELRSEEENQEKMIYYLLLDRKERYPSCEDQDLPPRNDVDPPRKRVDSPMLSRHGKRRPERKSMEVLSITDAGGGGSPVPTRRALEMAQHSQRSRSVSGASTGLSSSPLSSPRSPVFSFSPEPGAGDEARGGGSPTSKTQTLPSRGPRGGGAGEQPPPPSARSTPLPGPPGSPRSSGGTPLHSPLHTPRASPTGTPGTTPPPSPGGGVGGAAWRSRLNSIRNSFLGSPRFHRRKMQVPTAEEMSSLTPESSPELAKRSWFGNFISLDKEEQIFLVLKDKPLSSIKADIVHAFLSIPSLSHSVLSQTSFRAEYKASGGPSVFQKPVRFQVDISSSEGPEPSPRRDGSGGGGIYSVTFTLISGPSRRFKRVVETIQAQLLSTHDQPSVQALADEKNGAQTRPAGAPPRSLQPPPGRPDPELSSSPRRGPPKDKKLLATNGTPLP
MAP kinase-activated protein kinase 3, sequence (Q16644 whole entry): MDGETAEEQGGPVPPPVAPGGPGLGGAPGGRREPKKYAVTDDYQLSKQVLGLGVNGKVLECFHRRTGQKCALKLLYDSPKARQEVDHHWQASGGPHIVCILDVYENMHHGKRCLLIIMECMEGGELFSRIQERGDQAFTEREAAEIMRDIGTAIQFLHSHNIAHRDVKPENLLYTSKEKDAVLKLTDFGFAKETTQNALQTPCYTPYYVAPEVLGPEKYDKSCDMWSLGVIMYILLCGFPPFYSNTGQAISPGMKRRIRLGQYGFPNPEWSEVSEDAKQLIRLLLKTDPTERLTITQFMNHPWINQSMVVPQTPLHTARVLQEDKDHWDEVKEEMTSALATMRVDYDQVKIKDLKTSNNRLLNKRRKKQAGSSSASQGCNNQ
Voltage-gated inwardly rectifying potassium channel KCNH2, sequence (Q12809 whole entry): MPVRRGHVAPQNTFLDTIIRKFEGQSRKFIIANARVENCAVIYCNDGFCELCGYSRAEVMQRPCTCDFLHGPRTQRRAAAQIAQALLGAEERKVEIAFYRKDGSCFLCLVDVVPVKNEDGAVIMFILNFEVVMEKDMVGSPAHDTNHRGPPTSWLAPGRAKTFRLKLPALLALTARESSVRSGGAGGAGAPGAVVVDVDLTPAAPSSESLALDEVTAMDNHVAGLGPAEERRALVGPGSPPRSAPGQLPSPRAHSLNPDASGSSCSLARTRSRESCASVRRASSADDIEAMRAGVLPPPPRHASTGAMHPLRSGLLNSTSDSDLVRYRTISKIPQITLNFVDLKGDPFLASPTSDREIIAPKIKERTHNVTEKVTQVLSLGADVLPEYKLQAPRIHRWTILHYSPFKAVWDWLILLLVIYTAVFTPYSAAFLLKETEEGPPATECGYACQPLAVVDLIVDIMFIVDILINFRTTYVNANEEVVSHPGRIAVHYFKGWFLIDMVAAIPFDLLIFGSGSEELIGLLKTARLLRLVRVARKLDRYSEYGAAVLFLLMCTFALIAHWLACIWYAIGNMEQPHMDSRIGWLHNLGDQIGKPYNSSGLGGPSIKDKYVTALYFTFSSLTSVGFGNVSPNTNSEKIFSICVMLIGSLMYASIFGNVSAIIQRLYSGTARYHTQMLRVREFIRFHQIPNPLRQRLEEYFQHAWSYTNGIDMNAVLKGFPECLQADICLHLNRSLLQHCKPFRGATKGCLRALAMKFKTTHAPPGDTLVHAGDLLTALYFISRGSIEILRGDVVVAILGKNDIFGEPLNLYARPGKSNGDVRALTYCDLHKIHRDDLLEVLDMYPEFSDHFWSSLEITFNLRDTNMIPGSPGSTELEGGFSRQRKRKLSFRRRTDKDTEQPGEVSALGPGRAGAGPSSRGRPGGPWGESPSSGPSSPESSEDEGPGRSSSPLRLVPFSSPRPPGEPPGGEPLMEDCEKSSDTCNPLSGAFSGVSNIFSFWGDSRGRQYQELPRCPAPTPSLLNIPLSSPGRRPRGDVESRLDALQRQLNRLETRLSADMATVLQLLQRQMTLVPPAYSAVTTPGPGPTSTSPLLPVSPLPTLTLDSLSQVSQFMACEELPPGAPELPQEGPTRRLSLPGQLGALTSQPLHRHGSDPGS
Lymphokine-activated killer T-cell-originated protein kinase, sequence (Q96KB5 whole entry): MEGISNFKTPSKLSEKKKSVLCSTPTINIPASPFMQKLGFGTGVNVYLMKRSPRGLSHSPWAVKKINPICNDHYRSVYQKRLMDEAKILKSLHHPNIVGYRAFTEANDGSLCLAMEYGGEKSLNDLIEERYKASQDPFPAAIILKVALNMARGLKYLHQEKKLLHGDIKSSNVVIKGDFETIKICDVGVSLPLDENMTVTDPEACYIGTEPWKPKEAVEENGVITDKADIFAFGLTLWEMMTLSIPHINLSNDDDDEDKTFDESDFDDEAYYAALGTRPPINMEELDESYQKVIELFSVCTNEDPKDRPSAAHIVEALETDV
Testis-specific serine/threonine-protein kinase 2, sequence (Q96PF2 whole entry): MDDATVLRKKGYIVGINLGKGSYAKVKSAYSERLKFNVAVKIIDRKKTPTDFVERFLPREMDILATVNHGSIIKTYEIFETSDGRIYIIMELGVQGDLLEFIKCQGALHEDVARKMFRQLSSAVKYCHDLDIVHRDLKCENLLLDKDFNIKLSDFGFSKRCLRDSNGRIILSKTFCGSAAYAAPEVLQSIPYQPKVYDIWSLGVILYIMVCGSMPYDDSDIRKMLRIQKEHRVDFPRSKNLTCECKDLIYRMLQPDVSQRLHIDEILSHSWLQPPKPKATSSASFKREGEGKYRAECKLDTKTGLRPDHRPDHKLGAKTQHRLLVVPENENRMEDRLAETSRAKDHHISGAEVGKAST
Interleukin-1 receptor-associated kinase 1, sequence (P51617 whole entry): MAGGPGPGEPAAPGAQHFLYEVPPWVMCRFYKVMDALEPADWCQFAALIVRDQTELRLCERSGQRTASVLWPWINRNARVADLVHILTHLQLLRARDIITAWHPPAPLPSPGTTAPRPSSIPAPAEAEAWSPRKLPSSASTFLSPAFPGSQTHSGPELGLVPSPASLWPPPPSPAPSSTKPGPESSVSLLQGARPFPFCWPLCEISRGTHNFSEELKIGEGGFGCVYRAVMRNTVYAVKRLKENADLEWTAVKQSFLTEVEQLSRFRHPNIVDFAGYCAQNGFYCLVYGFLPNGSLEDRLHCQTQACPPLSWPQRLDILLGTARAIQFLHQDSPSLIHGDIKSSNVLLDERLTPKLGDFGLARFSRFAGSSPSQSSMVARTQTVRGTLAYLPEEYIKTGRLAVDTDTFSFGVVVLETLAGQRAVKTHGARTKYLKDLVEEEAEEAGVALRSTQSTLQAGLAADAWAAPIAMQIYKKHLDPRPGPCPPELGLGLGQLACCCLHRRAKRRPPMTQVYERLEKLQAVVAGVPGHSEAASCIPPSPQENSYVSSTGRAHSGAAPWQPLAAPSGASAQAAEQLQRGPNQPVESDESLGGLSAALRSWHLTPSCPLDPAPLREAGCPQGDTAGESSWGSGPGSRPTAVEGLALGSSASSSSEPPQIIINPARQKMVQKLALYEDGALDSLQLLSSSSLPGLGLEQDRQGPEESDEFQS

With `CCCCCCCCCCCCC/C=C/[C@@H](O)[C@@H](N)CO` [SPHINGOSINE] the EC50 [1] was 1.52 µM (active), the EC50 [2] was > 150 µM (not active) and the EC50 [3] was 8.1 µM (active). For the same compound, the IC50 [4] was > 20 µM (inactive), the IC50 [5] was 6.42 µM (active) and the IC50 [6] was 6.2 µM (active). For the same compound, the IC50 [7] was > 66.6 µM (inactive), the IC50 [8] was 32.5 µM (inactive) and the IC50 [9] was 20.9 µM (inactive). For the same compound, the AC50 [10] was 35.5 µM (inconclusive).

For `Oc1ccccc1-c1nc(/C=C/c2ccc(Cl)cc2)no1`, the IC50 [11] was > 99 µM (inactive), the IC50 [12] was 1.57 µM (active) and the IC50 [13] was 1.44 µM (active). For the same compound, the IC50 [14] was 3.7 µM (active), the IC50 [15] was 2.08 µM (active) and the IC50 [16] was > 99 µM (inactive). For the same compound, the IC50 [17] was 1.5 µM (active) and the IC50 [18] was 1.4 µM (active).

In the case of `CCN(CC)CCNC(=O)c1c(C)[nH]c(C=C2C(=O)Nc3ccc(F)cc32)c1C`, the Ki [19] is reported as 0.398 µM (active), the Ki [20] is reported as > 3.98 µM (inactive) and the Ki [21] is reported as 0.631 µM (active). For the same compound, the Ki [22] was > 6.31 µM (inactive), the Ki [23] was > 10 µM (inactive) and the Ki [24] was > 7.94 µM (inactive). For the same compound, the Ki [25] was > 10 µM (inactive).

With `CC1=NN(c2ccc(C(=O)O)cc2)C(=O)C1=Cc1c(C)cc2nc3ccccc3n2c1O` the Ki [26] was 1.58 µM (active), the Ki [27] was 6.31 µM (active) and the Ki [28] was 5.01 µM (active).

For `Cc1ccc2c(=O)[nH]cnc2c1`, the Ki [29] was 5.01 µM (active), the Ki [30] was 7.94 µM (active) and the Ki [31] was 15.8 µM (active).

In the case of `COCCNC(=O)CSc1nc2ccccc2c(=O)[nH]1`, the CC50 [32] is reported as > 100 µM (active).
